Reference: patent US20240109917A1 (ACTELION PHARMACEUTICALS LTD, priority 2020, published 2024)

The molecules below were run against VEGFR2, unphosphorylated (Homo sapiens (Human), UniProt P35968) (assay: VEGFR ADP GLO Assay).
Type: biochemical

VEGFR2, unphosphorylated, sequence (P35968 20-1356): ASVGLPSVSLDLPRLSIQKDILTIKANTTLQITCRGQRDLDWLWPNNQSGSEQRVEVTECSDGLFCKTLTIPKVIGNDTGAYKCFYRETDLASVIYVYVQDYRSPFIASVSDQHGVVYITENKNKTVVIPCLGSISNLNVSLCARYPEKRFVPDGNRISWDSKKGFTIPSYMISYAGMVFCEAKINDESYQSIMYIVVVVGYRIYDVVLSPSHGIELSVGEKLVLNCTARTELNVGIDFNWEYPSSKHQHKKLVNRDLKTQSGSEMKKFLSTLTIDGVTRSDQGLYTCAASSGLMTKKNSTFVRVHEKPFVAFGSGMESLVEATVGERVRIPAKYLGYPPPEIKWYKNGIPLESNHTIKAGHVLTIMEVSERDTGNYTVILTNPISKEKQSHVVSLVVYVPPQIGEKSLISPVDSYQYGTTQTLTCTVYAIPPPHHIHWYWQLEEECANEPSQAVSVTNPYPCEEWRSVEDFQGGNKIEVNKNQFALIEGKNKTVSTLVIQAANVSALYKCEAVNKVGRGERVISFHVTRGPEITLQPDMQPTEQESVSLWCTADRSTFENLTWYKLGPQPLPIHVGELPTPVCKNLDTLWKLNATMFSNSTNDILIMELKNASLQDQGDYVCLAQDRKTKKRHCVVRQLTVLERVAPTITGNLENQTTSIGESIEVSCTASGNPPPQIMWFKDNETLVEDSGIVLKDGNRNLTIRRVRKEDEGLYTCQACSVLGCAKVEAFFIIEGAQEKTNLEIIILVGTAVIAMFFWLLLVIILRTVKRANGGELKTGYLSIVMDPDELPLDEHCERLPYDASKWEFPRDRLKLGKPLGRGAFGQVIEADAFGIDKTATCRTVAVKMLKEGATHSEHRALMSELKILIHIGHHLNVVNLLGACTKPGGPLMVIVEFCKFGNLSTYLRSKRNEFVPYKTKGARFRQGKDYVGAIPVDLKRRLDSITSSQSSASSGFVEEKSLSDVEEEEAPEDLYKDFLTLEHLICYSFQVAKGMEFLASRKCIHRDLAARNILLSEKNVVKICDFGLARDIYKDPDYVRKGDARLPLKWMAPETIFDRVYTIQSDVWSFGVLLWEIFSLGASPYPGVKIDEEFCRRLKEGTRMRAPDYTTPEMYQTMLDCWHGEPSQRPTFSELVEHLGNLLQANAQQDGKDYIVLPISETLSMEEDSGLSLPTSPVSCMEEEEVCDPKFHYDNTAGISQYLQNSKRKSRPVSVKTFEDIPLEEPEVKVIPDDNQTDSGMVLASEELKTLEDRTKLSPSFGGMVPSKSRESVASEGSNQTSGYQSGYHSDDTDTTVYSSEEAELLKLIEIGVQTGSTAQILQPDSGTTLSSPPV

Compound	IC50
Cc1ncc(NC(=O)CN2CCc3cnccc3C2)cc1NC(=O)c1cnn2cc(-c3cnn(C)c3)sc12 [Example 62, N-(5-(2-(3,4-dihydro-2,6-naphthyridin-2 (1H)-yl)acetamido)-2-methylpyridin-3-yl)-2-(1-methyl-1H-pyrazol-4-yl)pyrazolo[5,1-b]thiazole-7-carboxamide]	> 7.5 µM
Cc1ncc(NC(=O)CN2CCC3(CC2)COC3)cc1NC(=O)c1cnn2cc(-c3cnn(C)c3)sc12 [Example 46, N-(5-(2-(2-oxa-7-azaspiro[3.5]nonan-7-yl)acetamido)-2-methylpyridin-3-yl)-2-(1-methyl-1H-pyrazol-4-yl)pyrazolo[5,1-b]thiazole-7-carboxamide]	> 7.5 µM
Cc1ncc(NC(=O)CN2Cc3cccnc3C2)cc1NC(=O)c1cnn2cc(-c3cnn(C)c3)sc12 [Example 48, N-(5-(2-(5H-pyrrolo[3,4-b]pyridin-6 (7H)-yl)acetamido)-2-methylpyridin-3-yl)-2-(1-methyl-1H-pyrazol-4-yl)pyrazolo[5,1-b]thiazole-7-carboxamide]	> 7.5 µM
Cc1ncc(NC(=O)CN2CCc3ncsc3C2)cc1NC(=O)c1cnn2cc(-c3cnn(C)c3)sc12 [Example 58, N-(5-(2-(6,7-dihydrothiazolo[5,4-c]pyridin-5 (4H)-yl)acetamido)-2-methylpyridin-3-yl)-2-(1-methyl-1H-pyrazol-4-yl)pyrazolo[5,1-b]thiazole-7-carboxamide]	> 7.5 µM
COCCn1cc(-c2cn3ncc(C(=O)Nc4cc(NC(=O)C[C@H]5CCCN5C(C)C)cnc4C)c3s2)cn1 [Example 485, (R)—N-(5-(2-(1-isopropylpyrrolidin-2-yl)acetamido)-2-methylpyridin-3-yl)-2-(1-(2-methoxyethyl)-1H-pyrazol-4-yl)pyrazolo[5,1-b]thiazole-7-carboxamide]	> 7.5 µM
Cc1ncc(NC(=O)CCN2CCCC2(C)C)cc1NC(=O)c1cnn2cc(-c3cnn(CCO)c3)sc12 [Example 88, N-(5-(3-(2,2-dimethylpyrrolidin-1-yl)propanamido)-2-methylpyridin-3-yl)-2-(1-(2-hydroxyethyl)-1H-pyrazol-4-yl)pyrazolo[5,1-b]thiazole-7-carboxamide]	> 7.5 µM
Cc1ncc(NC(=O)CN2C[C@H](C)O[C@@H](C)C2)cc1NC(=O)c1cnn2cc(-c3cnn(C)c3)sc12 [Example 52, N-(5-(2-((2S,6S)-2,6-dimethylmorpholino)acetamido)-2-methylpyridin-3-yl)-2-(1-methyl-1H-pyrazol-4-yl)pyrazolo[5,1-b]thiazole-7-carboxamide]	> 7.5 µM
Cc1ncc(NC(=O)CN2CCOC(C)(C)C2)cc1NC(=O)c1cnn2cc(-c3cnn(C)c3)sc12 [Example 67, N-(5-(2-(2,2-dimethylmorpholino)acetamido)-2-methylpyridin-3-yl)-2-(1-methyl-1H-pyrazol-4-yl)pyrazolo[5,1-b]thiazole-7-carboxamide]	> 7.5 µM
Cc1ncc(NC(=O)CN2CCc3ncccc3C2)cc1NC(=O)c1cnn2cc(-c3cnn(C)c3)sc12 [Example 63, N-(5-(2-(7,8-dihydro-1,6-naphthyridin-6 (5H)-yl)acetamido)-2-methylpyridin-3-yl)-2-(1-methyl-1H-pyrazol-4-yl)pyrazolo[5,1-b]thiazole-7-carboxamide]	> 7.5 µM
COCCn1cc(-c2cn3ncc(C(=O)Nc4cc(NC(=O)CCN5C[C@H]6CC[C@@H]5C6)cnc4C)c3s2)cn1 [Example 94, N-(5-(3-((1R,4S)-2-azabicyclo[2.2.1]heptan-2-yl)propanamido)-2-methylpyridin-3-yl)-2-(1-(2-methoxyethyl)-1H-pyrazol-4-yl)pyrazolo[5,1-b]thiazole-7-carboxamide]	> 7.5 µM
Cc1ncc(NC(=O)CN2Cc3ncsc3C2)cc1NC(=O)c1cnn2cc(-c3cnn(C)c3)sc12 [Example 76, N-(5-(2-(4H-pyrrolo[3,4-d]thiazol-5 (6H)-yl)acetamido)-2-methylpyridin-3-yl)-2-(1-methyl-1H-pyrazol-4-yl)pyrazolo[5,1-b]thiazole-7-carboxamide]	> 7.5 µM
Cc1ncc(NC(=O)CN2CCOCC23CCC3)cc1NC(=O)c1cnn2cc(-c3cnn(C)c3)sc12 [Example 78, N-(5-(2-(8-oxa-5-azaspiro[3.5]nonan-5-yl)acetamido)-2-methylpyridin-3-yl)-2-(1-methyl-1H-pyrazol-4-yl)pyrazolo[5,1-b]thiazole-7-carboxamide]	> 7.5 µM
Cc1ncc(NC(=O)CN2[C@H](C)COC[C@H]2C)cc1NC(=O)c1cnn2cc(-c3cnn(C)c3)sc12 [Example 51, N-(5-(2-((3R,5R)-3,5-dimethylmorpholino)acetamido)-2-methylpyridin-3-yl)-2-(1-methyl-1H-pyrazol-4-yl)pyrazolo[5,1-b]thiazole-7-carboxamide]	> 7.5 µM
Cc1ncc(NC(=O)CN2CCn3ccnc3C2)cc1NC(=O)c1cnn2cc(-c3cnn(C)c3)sc12 [Example 75, N-(5-(2-(5,6-dihydroimidazo[1,2-a]pyrazin-7 (8H)-yl)acetamido)-2-methylpyridin-3-yl)-2-(1-methyl-1H-pyrazol-4-yl)pyrazolo[5,1-b]thiazole-7-carboxamide]	> 7.5 µM
COC1CCN(CC(=O)Nc2cnc(C)c(NC(=O)c3cnn4cc(-c5cnn(C)c5)sc34)c2)CC1 [Example 83, N-(5-(2-(4-methoxypiperidin-1-yl)acetamido)-2-methylpyridin-3-yl)-2-(1-methyl-1H-pyrazol-4-yl)pyrazolo[5,1-b]thiazole-7-carboxamide]	> 7.5 µM
COCCn1cc(-c2cn3ncc(C(=O)Nc4cc(NC(=O)C5(CN6CCCC6(C)C)CC5)cnc4C)c3s2)cn1 [Example 487, N-(5-(1-((2,2-dimethylpyrrolidin-1-yl)methyl)cyclopropane-carboxamido)-2-methylpyridin-3-yl)-2-(1-(2-methoxyethyl)-1H-pyrazol-4-yl)pyrazolo[5,1-b]thiazole-7-carboxamide]	> 7.5 µM
Cc1ncc(NC(=O)CN2CCOCC2)cc1NC(=O)c1cnn2cc(-c3cnn(C)c3)sc12 [Example 55, 2-(1-methyl-1H-pyrazol-4-yl)-N-(2-methyl-5-(2-morpholinoacetamido)pyridin-3-yl)pyrazolo[5,1-b]thiazole-7-carboxamide]	> 7.5 µM
Cc1ncc(NC(=O)CNCC(C)C)cc1NC(=O)c1cnn2cc(-c3cnn4c3CCC4)sc12 [Example 493, 2-(5,6-dihydro-4H-pyrrolo[1,2-b]pyrazol-3-yl)-N-(5-(2-(isobutylamino)acetamido)-2-methylpyridin-3-yl)pyrazolo[5,1-b]thiazole-7-carboxamide]	> 7.5 µM
Cc1ncc(NC(=O)CN2CCCC(F)(F)C2)cc1NC(=O)c1cnn2cc(-c3cnn(C)c3)sc12 [Example 49, N-(5-(2-(3,3-difluoropiperidin-1-yl)acetamido)-2-methylpyridin-3-yl)-2-(1-methyl-1H-pyrazol-4-yl)pyrazolo[5,1-b]thiazole-7-carboxamide]	> 7.5 µM
Cc1ncc(NC(=O)CN2CCO[C@H](C)C2)cc1NC(=O)c1cnn2cc(-c3cnn(C)c3)sc12 [Example 54, (R)-2-(1-methyl-1H-pyrazol-4-yl)-N-(2-methyl-5-(2-(2-methylmorpholino)acetamido)pyridin-3-yl)pyrazolo[5,1-b]thiazole-7-carboxamide]	> 7.5 µM
Cc1ncc(NC(=O)CN2C[C@@H](C)O[C@@H](C)C2)cc1NC(=O)c1cnn2cc(-c3cnn(C)c3)sc12 [Example 53, N-(5-(2-((2R,6S)-2,6-dimethylmorpholino)acetamido)-2-methylpyridin-3-yl)-2-(1-methyl-1H-pyrazol-4-yl)pyrazolo[5,1-b]thiazole-7-carboxamide]	> 7.5 µM
COCCn1cc(-c2cn3ncc(C(=O)Nc4cc(NC(=O)C[C@H]5CCN(C(C)C)C5)cnc4C)c3s2)cn1 [Example 486, (R)—N-(5-(2-(1-isopropylpyrrolidin-3-yl)acetamido)-2-methylpyridin-3-yl)-2-(1-(2-methoxyethyl)-1H-pyrazol-4-yl)pyrazolo[5,1-b]thiazole-7-carboxamide]	> 7.5 µM
Cc1ncc(NC(=O)CN2CCC(F)(F)C2)cc1NC(=O)c1cnn2cc(-c3cnn(C)c3)sc12 [Example 73, N-(5-(2-(3,3-difluoropyrrolidin-1-yl)acetamido)-2-methylpyridin-3-yl)-2-(1-methyl-1H-pyrazol-4-yl)pyrazolo[5,1-b]thiazole-7-carboxamide]	> 7.5 µM
Cc1ncc(NC(=O)CN2[C@H](C)COC[C@@H]2C)cc1NC(=O)c1cnn2cc(-c3cnn(C)c3)sc12 [Example 71, N-(5-(2-((3S,5R)-3,5-dimethylmorpholino)acetamido)-2-methylpyridin-3-yl)-2-(1-methyl-1H-pyrazol-4-yl)pyrazolo[5,1-b]thiazole-7-carboxamide]	> 7.5 µM
COCCn1cc(-c2cn3ncc(C(=O)Nc4cc(NC(=O)CCN5C[C@@H]6CC[C@H]5C6)cnc4C)c3s2)cn1 [Example 92, N-(5-(3-((1S,4R)-2-azabicyclo[2.2.1]heptan-2-yl)propanamido)-2-methylpyridin-3-yl)-2-(1-(2-methoxyethyl)-1H-pyrazol-4-yl)pyrazolo[5,1-b]thiazole-7-carboxamide]	> 7.5 µM
Cc1ncc(NC(=O)CN2CCS(=O)(=O)CC2)cc1NC(=O)c1cnn2cc(-c3cnn(C)c3)sc12 [Example 59, N-(5-(2-(1,1-dioxidothiomorpholino)acetamido)-2-methylpyridin-3-yl)-2-(1-methyl-1H-pyrazol-4-yl)pyrazolo[5,1-b]thiazole-7-carboxamide]	> 7.5 µM
Cc1ncc(NC(=O)CN2CCCC23CC3)cc1NC(=O)c1cnn2cc(-c3cnn(CCO)c3)sc12 [Example 87, N-(5-(2-(4-azaspiro[2.4]heptan-4-yl)acetamido)-2-methylpyridin-3-yl)-2-(1-(2-hydroxyethyl)-1H-pyrazol-4-yl)pyrazolo[5,1-b]thiazole-7-carboxamide]	> 7.5 µM
CC[C@H]1CN(CC(=O)Nc2cnc(C)c(NC(=O)c3cnn4cc(-c5cnn(C)c5)sc34)c2)CCO1 [Example 66, (S)—N-(5-(2-(2-ethylmorpholino)acetamido)-2-methylpyridin-3-yl)-2-(1-methyl-1H-pyrazol-4-yl)pyrazolo[5,1-b]thiazole-7-carboxamide]	> 7.5 µM
